In assay [1] the target is TLR7 (Mus musculus (Mouse), UniProt P58681). Briefly: In vivo mouse TLR7 PD model (gardiquimod challenge, plasma IL-6 and IFN-alpha). The settings on record: C57BL/6 mice, plasma 90 min after gardiquimod i.p., vs vehicle. On the procedure:
In Vivo Mouse TLR7 PD Model:
Adult male C57BL/6 mice were used for the experiments. Mice (7 to 10 per group) were randomized into different treatment groups based on body weight. Mice from the respective treatment groups were administered orally with vehicle or test compound. Thirty min after the oral administration of vehicle or test compound, mice were challenged with intraperitoneal injection of gardiquimod for TLR7 PD model. Ninety minutes after gardiquimod injection, mice were bled under isoflurane anaesthesia and plasma IL-6 and IFN-alpha levels were estimated by using commercially available ELISA kit (BD Biosciences, PBL Life Sciences). At the end of experiment, mean cytokine data was plotted and one way ANOVA with Dunnett's test was performed to calculate the significance of test compound treated group vs. vehicle control group. Percent inhibition of cytokine induction was calculated for test compound treated group vs vehicle control group.

The target in assay [2] is human TLR9 (Homo sapiens (Human), UniProt Q9NR96). Briefly: TLR9 inhibition reporter assay (HEK-Blue SEAP).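 Also: SEAP driven by an IFN-β minimal promoter with NF-κB and AP-1 sites, read after 22 h, compounds dosed 0.05 nM–50 µM, inhibition scaled between agonist plus DMSO and reference-inhibitor wells.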 The settings on record: read-out: TLR9 IC50.
Chain of human TLR9 (Q9NR96 26-1032): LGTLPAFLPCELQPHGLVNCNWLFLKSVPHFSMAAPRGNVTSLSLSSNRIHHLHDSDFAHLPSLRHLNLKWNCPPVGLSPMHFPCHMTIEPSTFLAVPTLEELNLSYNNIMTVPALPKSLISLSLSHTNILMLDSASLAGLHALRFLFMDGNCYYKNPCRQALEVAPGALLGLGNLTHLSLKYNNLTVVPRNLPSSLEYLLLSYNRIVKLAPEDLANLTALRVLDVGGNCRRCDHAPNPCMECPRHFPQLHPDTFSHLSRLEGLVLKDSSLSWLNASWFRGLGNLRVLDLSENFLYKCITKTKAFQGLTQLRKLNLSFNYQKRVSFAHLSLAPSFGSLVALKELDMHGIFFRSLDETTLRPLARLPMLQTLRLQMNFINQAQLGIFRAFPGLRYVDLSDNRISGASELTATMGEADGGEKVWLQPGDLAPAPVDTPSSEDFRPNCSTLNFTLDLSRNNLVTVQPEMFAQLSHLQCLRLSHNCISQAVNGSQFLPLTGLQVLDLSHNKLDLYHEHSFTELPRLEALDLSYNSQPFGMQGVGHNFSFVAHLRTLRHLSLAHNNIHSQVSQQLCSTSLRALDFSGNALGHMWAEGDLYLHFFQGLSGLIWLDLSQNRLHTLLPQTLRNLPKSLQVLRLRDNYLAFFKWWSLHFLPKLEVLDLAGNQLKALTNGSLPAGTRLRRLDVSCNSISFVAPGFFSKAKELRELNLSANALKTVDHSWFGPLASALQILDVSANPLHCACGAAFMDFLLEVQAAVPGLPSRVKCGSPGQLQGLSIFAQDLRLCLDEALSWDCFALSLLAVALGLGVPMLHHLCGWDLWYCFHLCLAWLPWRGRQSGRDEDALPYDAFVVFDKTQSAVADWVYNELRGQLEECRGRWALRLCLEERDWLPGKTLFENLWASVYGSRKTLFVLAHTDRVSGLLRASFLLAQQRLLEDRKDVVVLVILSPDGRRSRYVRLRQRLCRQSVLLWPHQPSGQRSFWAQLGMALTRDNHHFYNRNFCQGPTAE
The target in assay [3] is human TLR7 (Homo sapiens (Human), UniProt Q9NYK1). Description: TLR7 inhibition reporter assay (HEK-Blue SEAP). Format: cell-based. Background: Reporter assays use an easily measured gene product as a stand-in for the process of interest.
Chain of human TLR7 (Q9NYK1 27-1049): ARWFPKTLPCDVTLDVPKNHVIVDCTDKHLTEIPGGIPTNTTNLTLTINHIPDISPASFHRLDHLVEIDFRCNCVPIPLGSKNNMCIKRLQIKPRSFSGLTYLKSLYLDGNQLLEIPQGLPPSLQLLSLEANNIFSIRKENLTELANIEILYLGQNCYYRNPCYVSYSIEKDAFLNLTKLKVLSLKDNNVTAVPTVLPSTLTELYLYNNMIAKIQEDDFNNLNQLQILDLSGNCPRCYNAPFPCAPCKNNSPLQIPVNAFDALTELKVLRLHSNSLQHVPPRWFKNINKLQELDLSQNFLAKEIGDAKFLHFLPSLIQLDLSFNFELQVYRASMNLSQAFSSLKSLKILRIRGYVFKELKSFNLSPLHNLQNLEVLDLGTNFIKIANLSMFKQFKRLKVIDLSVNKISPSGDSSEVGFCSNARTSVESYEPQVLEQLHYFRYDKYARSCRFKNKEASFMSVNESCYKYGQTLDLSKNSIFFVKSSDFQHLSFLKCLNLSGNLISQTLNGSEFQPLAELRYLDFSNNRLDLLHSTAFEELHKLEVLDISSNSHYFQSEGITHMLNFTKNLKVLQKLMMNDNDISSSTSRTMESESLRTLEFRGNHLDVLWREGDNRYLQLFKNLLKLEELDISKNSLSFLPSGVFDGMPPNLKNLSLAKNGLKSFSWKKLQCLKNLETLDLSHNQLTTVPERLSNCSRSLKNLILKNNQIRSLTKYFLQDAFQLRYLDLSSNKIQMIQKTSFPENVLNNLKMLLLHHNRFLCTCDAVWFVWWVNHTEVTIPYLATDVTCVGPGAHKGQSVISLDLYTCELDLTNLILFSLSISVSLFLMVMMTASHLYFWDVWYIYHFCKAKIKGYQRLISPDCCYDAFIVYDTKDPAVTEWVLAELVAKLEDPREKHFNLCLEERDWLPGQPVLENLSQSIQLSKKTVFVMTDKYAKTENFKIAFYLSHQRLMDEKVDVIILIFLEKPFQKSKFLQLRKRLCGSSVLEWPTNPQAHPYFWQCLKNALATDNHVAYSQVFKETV
Assay [4] concerns the target human TLR8 (Homo sapiens (Human), UniProt Q9NR97). Description: TLR8 inhibition reporter assay (HEK-Blue SEAP).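 Also: SEAP driven by IFN-β minimal promoter carrying NF-κB and AP-1 sites, compounds dosed 0.05 nM to 50 µM for 22 h, inhibition scaled between agonist-plus-DMSO and reference-inhibitor wells.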 The settings on record: read-out: TLR8 IC50.
The mark [5] stands for this setting: HEK-Blue human TLR9 cells, ODN2006 5 nM.
Setting [6] is: HEK-Blue human TLR7 cells, gardiquimod 7.5 μM.
Where [7] appears, read: HEK-Blue human TLR8 cells, R848 15.9 μM.

As a reminder, the IC50 is the point on the concentration scale where inhibition reaches its midpoint.

Where two headings read alike, the source gives them in different places.

Chain of human TLR8 (Q9NR97 27-1041): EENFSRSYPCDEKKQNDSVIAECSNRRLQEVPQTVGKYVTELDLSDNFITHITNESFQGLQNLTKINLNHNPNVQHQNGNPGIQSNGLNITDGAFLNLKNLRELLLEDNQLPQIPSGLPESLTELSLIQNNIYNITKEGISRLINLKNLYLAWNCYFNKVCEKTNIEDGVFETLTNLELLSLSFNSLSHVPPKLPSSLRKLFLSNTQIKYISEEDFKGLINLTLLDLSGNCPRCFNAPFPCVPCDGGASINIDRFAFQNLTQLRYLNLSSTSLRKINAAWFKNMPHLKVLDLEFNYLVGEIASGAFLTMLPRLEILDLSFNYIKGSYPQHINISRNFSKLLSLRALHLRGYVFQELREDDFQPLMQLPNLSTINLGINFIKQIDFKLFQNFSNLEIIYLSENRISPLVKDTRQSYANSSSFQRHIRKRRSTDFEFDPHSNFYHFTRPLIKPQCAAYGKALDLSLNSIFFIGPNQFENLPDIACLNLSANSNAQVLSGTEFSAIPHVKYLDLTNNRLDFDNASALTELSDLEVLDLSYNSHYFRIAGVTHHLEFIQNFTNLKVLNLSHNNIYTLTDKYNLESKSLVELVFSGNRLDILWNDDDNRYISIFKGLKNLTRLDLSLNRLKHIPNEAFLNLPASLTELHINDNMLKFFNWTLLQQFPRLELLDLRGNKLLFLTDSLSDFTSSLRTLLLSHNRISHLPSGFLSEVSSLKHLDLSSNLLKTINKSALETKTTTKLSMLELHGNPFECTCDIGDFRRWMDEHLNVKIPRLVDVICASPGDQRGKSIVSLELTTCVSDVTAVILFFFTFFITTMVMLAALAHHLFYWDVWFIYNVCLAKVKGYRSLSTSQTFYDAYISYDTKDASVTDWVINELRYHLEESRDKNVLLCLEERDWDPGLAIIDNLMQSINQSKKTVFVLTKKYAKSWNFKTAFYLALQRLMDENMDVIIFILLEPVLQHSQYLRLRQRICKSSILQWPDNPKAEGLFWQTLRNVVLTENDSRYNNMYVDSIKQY
Chain of TLR7 (P58681 27-1050): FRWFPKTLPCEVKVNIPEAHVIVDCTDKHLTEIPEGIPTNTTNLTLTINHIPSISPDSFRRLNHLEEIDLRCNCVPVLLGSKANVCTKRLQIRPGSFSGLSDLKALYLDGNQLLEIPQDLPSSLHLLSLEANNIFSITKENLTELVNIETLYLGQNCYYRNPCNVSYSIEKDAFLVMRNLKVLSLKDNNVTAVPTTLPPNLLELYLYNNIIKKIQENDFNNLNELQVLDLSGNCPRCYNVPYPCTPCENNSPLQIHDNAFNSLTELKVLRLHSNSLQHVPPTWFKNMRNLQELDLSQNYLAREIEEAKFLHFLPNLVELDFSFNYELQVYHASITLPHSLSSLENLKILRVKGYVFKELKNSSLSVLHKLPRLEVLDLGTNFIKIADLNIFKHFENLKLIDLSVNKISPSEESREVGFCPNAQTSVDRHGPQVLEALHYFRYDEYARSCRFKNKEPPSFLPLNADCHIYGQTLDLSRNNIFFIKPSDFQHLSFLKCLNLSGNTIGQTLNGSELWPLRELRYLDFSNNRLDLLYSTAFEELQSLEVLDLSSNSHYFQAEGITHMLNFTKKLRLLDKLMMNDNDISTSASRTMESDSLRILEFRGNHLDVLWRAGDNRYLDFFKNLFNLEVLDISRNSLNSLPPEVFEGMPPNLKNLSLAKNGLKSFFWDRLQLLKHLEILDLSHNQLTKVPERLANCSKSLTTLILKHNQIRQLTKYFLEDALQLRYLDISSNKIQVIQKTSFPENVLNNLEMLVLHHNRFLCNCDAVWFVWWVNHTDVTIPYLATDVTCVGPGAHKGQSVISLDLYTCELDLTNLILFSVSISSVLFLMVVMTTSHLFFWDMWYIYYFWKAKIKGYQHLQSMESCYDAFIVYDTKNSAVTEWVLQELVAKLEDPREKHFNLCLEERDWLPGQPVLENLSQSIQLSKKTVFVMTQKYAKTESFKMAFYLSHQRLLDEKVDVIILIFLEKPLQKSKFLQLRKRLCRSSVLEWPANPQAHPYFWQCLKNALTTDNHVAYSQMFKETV

Regarding `Cc1c(-c2[nH]c3ccc(N4CCN(C(=O)CN(C)C)CC4)nc3c2C(C)C)cn2ncnc2c1C` [Example 3, 1-(4-(2-(7,8-dimethyl-[1,2,4]triazolo[1,5-a]pyridin-6-yl)-3-isopropyl-1H-pyrrolo[3,2-b]pyridin-5-yl)piperazin-1-yl)-2-(dimethylamino)ethan-1-one], the “% inhibition of IFN-alpha” value in assay [1] (0.005 mg/kg oral) was determined as 29%; in assay [1] (0.01 mg/kg oral), 37%; in assay [1] (0.05 mg/kg oral), 94%; in assay [1] (0.25 mg/kg oral), 99%; in assay [1] (0.5 mg/kg oral), 100%. Besides, the “% inhibition of IL6” value in assay [1] (0.005 mg/kg oral) came to 0%; in assay [1] (0.01 mg/kg oral), 24%; in assay [1] (0.05 mg/kg oral) it was 75%; in assay [1] (0.25 mg/kg oral) it was 90%; in assay [1] (0.5 mg/kg oral) it was 91%. The IC50 in assay [2] (HEK-Blue cells overexpressing human TLR9, ODN2006 5 nM stimulation, SEAP reporter) was 8540 nM; in assay [3] (HEK-Blue cells overexpressing human TLR7, gardiquimod 7.5 μM stimulation, SEAP reporter), 0.93 nM; in assay [4] (HEK-Blue cells overexpressing human TLR8, R848 15.9 μM stimulation, SEAP reporter), 1.1 nM.
Consider `Cc1c(-c2[nH]c3ccc(C4CCC(N5CC(O)C5)CC4)nc3c2C(C)C)cn2ncnc2c1C` (stereo not shown) [Example 1049], for which the values for the IC50 in assay [2] (setting [5]), in assay [3] (setting [6]) and in assay [4] (setting [7]) were 2600 nM, 1.6 nM and 5.4 nM, respectively.
`Cc1c(-c2[nH]c3ccc(C4CCC(N5CC(C(=O)N(C)C)C5)CC4)nc3c2C(C)C)cn2ncnc2c1C` (stereo not shown) [Example 1050]: the concentration for half-maximal inhibition (IC50) came out at 2660 nM in assay [2] (setting [5]), 2.8 nM in assay [3] (setting [6]) and 4.8 nM in assay [4] (setting [7]).
As to `Cc1c(-c2[nH]c3ccc(C4CCC(N5CCC5)CC4)nc3c2C(C)C)cn2ncnc2c1C` (stereo not shown) [Example 1051], the figures for the IC50 in assay [2] (setting [5]), in assay [3] (setting [6]) and in assay [4] (setting [7]) were 1910 nM, 0.41 nM and 1.5 nM, respectively.
The corresponding values for `Cc1c(-c2[nH]c3ccc(C4CCC(N5CC(C)(C)C5)CC4)nc3c2C(C)C)cn2ncnc2c1C` (stereo not shown) [Example 1052] are 5920 nM, 8.9 nM and 17 nM.
Turning to `Cc1c(-c2[nH]c3ccc([C@H]4CC[C@@H](N5CC6(C5)CS(=O)(=O)C6)CC4)nc3c2C(C)C)cn2ncnc2c1C` [Example 1053], the values for the IC50 in assay [2] (setting [5]), in assay [3] (setting [6]) and in assay [4] (setting [7]) were 4810 nM, 2.5 nM and 4.8 nM, respectively.
The corresponding values for `Cc1c(-c2[nH]c3ccc(C4CCC(NC(C)(C)C)CC4)nc3c2C(C)C)cn2ncnc2c1C` (stereo not shown) [Example 1054] are 1690 nM, 5.4 nM and 1.7 nM.
The corresponding values for `Cc1c(-c2[nH]c3ccc(C4CCC(N5CC6(CCO6)C5)CC4)nc3c2C(C)C)cn2ncnc2c1C` (stereo not shown) [Example 1055] are 5470 nM, 4.3 nM and 8.3 nM.
The matching figures for `Cc1c(-c2[nH]c3ccc(C4CCC(NC(C)(C)C)CC4)nc3c2C(C)C)cn2ncnc2c1C` (stereo not shown) [Example 1056]: 2990 nM, 2.1 nM and 1.2 nM.
In the case of `Cc1c(-c2[nH]c3ccc(C4CCC(N5CC6(CCO6)C5)CC4)nc3c2C(C)C)cn2ncnc2c1C` (stereo not shown) [Example 1057], the IC50 came out at 2700 nM in assay [2] (setting [5]), 0.81 nM in assay [3] (setting [6]) and 1.7 nM in assay [4] (setting [7]).
As to `Cc1c(-c2[nH]c3ccc(C4CCC(N5CCC(F)C5)CC4)nc3c2C(C)C)cn2ncnc2c1C` (stereo not shown) [Example 1058], the values for the IC50 in assay [2] (setting [5]), in assay [3] (setting [6]) and in assay [4] (setting [7]) were 5280 nM, 1.9 nM and 3.5 nM, respectively.
`Cc1c(-c2[nH]c3ccc(C4CCC(N5CCC6(CCOC6)C5)CC4)nc3c2C(C)C)cn2ncnc2c1C` (stereo not shown) [Example 1059]: the IC50 in assay [2] (setting [5]) was found to be 2250 nM; in assay [3] (setting [6]) it was 1.6 nM; in assay [4] (setting [7]) it was 1.4 nM.
The matching figures for `Cc1c(-c2[nH]c3ccc(C4CCC(N5CCC6(COC6)C5)CC4)nc3c2C(C)C)cn2ncnc2c1C` (stereo not shown) [Example 1060]: 2600 nM, 0.5 nM and 0.5 nM.
`Cc1c(-c2[nH]c3ccc(C4CCC(N5CC6(CCOC6)C5)CC4)nc3c2C(C)C)cn2ncnc2c1C` (stereo not shown) [Example 1061]: the IC50 was 3180 nM in assay [2] (setting [5]), 2.7 nM in assay [3] (setting [6]) and 4.8 nM in assay [4] (setting [7]).
The corresponding values for `Cc1c(-c2[nH]c3ccc(C4CCC(N5CCC(F)C5)CC4)nc3c2C(C)C)cn2ncnc2c1C` (stereo not shown) [Example 1062] are 10200 nM, 13 nM and 25 nM.
The matching figures for `Cc1c(-c2[nH]c3ccc(C4CCC(N5CCC6(COC6)C5)CC4)nc3c2C(C)C)cn2ncnc2c1C` (stereo not shown) [Example 1063]: 8060 nM, 10 nM and 18 nM.
With `Cc1c(-c2[nH]c3ccc(C4CCC(N5CCOCC5)CC4)nc3c2C(C)C)cn2ncnc2c1C` (stereo not shown) [Example 1064], the IC50 is 2460 nM in assay [2] (setting [5]), 0.34 nM in assay [3] (setting [6]) and 0.96 nM in assay [4] (setting [7]).
With `Cc1c(-c2[nH]c3ccc(C4CCC(N5CC6(CCOC6)C5)CC4)nc3c2C(C)C)cn2ncnc2c1C` (stereo not shown) [Example 1065], the IC50 is 2800 nM in assay [2] (setting [5]), 1.1 nM in assay [3] (setting [6]) and 1.1 nM in assay [4] (setting [7]).
With `Cc1c(-c2[nH]c3ccc(C4CCC(N5CCC6(CCOC6)C5)CC4)nc3c2C(C)C)cn2ncnc2c1C` (stereo not shown) [Example 1066], the IC50 in assay [2] (setting [5]) was determined as 4290 nM; in assay [3] (setting [6]) it was 9 nM; in assay [4] (setting [7]), 11 nM.
Take `COc1cc(-c2[nH]c3ccc(C4CCC(N5CCC(F)C5)CC4)nc3c2C(C)C)cn2ncnc12` (stereo not shown) [Example 1067]: the results for the IC50 in assay [2] (setting [5]), in assay [3] (setting [6]) and in assay [4] (setting [7]) were 5400 nM, 1 nM and 4.5 nM, respectively.
The matching figures for `COc1cc(-c2[nH]c3ccc(C4CCC(N5CCC6(COC6)C5)CC4)nc3c2C(C)C)cn2ncnc12` (stereo not shown) [Example 1068]: 2960 nM, 0.88 nM and 1.8 nM.
The corresponding values for `COc1cc(-c2[nH]c3ccc(C4CCC(N5CC6(CCOC6)C5)CC4)nc3c2C(C)C)cn2ncnc12` (stereo not shown) [Example 1069] are 735 nM, 0.09 nM and 0.17 nM.
For `COc1cc(-c2[nH]c3ccc(C4CCC(N5CC6(CCOC6)C5)CC4)nc3c2C(C)C)cn2ncnc12` (stereo not shown) [Example 1070], the IC50 worked out at 845 nM in assay [2] (setting [5]), 0.54 nM in assay [3] (setting [6]) and 0.72 nM in assay [4] (setting [7]).
For the compound `COc1cc(-c2[nH]c3ccc(C4CCC(N5CCOCC5)CC4)nc3c2C(C)C)cn2ncnc12` (stereo not shown) [Example 1071], the IC50 in assay [2] (setting [5]) came to 5950 nM; in assay [3] (setting [6]), 3.7 nM; in assay [4] (setting [7]), 25 nM.
The corresponding values for `COc1cc(-c2[nH]c3ccc(C4CCC(N5CCC(F)C5)CC4)nc3c2C(C)C)cn2ncnc12` (stereo not shown) [Example 1072] are 5840 nM, 2.9 nM and 35 nM.
Consider `COc1cc(-c2[nH]c3ccc(C4CCC(N5CCC6(COC6)C5)CC4)nc3c2C(C)C)cn2ncnc12` (stereo not shown) [Example 1073], for which the IC50 came out at 5830 nM in assay [2] (setting [5]), 4.6 nM in assay [3] (setting [6]) and 28 nM in assay [4] (setting [7]).
The corresponding values for `COc1cc(-c2[nH]c3ccc(C4CCC(N5CC6(CCO6)C5)CC4)nc3c2C(C)C)cn2ncnc12` (stereo not shown) [Example 1074] are 2130 nM, 0.59 nM and 1.9 nM.
In the case of `COc1cc(-c2[nH]c3ccc(C4CCC(N5CC6(CCO6)C5)CC4)nc3c2C(C)C)cn2ncnc12` (stereo not shown) [Example 1075], the figures for the IC50 in assay [2] (setting [5]), in assay [3] (setting [6]) and in assay [4] (setting [7]) were 3350 nM, 1.8 nM and 11 nM, respectively.
For `Cc1c(-c2[nH]c3ccc(C4CCC(N5CC6(CCS6(=O)=O)C5)CC4)nc3c2C(C)C)cn2ncnc2c1C` (stereo not shown) [Example 1076], the IC50 in assay [2] (setting [5]) worked out at 10600 nM; in assay [3] (setting [6]) it was 1.6 nM; in assay [4] (setting [7]), 1.8 nM.
Regarding `Cc1c(-c2[nH]c3ccc(C4CCC(N5CC6(CCS6(=O)=O)C5)CC4)nc3c2C(C)C)cn2ncnc2c1C` (stereo not shown) [Example 1077], the IC50 in assay [2] (setting [5]) came to 21800 nM; in assay [3] (setting [6]) it was 18 nM; in assay [4] (setting [7]), 38 nM.
The corresponding values for `CNC1CCC(c2ccc3[nH]c(-c4cn(C)c5ncncc45)c(C(C)C)c3n2)CC1` (stereo not shown) [Example 1078] are over 50000 nM, 9.8 nM and 216 nM.

These data come from patent US10544143B2, “4-azaindole compounds” (BRISTOL-MYERS SQUIBB COMPANY, priority 2017, dated 2020).
